Article PMC5909127, “Optimization of a “bump-and-hole” approach to allele-selective BET bromodomain inhibition” (Chemical Science, 2018)
Where two headings read alike, the source gives them in different places.

Key:
BRDT BD2 WT = BRDT BD2 WT (Homo sapiens, UniProt Q58F21); experiment: competitive AlphaLISA; type: binding
in vitro [1] = conditions: PAMPA, pH 7.4
BRD2 BD1 L/V [2] = biological target: T1, BRD2 BD1 L/V (Homo sapiens, UniProt P25440, L110V); experiment: ITC; type: binding
BRD3 BD1 L/V [3] = biological target: T2, BRD3 BD1 L/V (Homo sapiens, UniProt Q15059, L70V); experiment: competitive AlphaLISA; type: binding
T2 sequence (Q15059 24-144 L70V limits assumed): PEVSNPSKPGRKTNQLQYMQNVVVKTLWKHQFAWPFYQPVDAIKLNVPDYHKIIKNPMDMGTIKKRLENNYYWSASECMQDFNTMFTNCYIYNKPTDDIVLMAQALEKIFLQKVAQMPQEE

BRD2 BD1 WT = BRD2 BD1 WT (Homo sapiens, UniProt P25440); experiment: ITC; type: binding
BRD2 BD1 WT, sequence (P25440 71-176): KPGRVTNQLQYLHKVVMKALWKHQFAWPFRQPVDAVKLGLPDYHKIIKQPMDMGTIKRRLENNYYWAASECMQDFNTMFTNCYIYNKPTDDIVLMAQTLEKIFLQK

BRD3 BD2 WT [4] = biological target: T3, BRD3 BD2 WT (Homo sapiens, UniProt Q15059); experiment: competitive AlphaLISA; type: binding
T3 sequence (Q15059 306-416): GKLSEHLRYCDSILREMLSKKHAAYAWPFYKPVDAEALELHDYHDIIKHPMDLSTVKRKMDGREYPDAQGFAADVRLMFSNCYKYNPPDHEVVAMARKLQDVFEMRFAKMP

BRD3 BD2 L/V [5] = biological target: T4, BRD3 BD2 L/V (Homo sapiens, UniProt Q15059, L345V); experiment: ITC; type: binding
T4 sequence (Q15059 306-416 L345V limits assumed): as the sequence (Q15059 306-416) above, with L40V counted along it

BRD3 BD1 WT [6] = biological target: T5, BRD3 BD1 WT (Homo sapiens, UniProt Q15059); experiment: ITC; type: binding; conditions: for N BRD3 BD1 WT: ITC stoichiometry
T5 sequence (Q15059 24-144): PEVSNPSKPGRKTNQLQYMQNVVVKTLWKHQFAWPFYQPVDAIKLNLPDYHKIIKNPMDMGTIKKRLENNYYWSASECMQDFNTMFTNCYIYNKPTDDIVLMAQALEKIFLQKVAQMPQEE

BRDT BD2 L/V = BRDT BD2 L/V (Homo sapiens, UniProt Q58F21, L306V); experiment: competitive AlphaLISA; type: binding; conditions: read-out: AlphaLISA pIC50 Value BRDT BD2 L/V (converted)
BRD3 BD2 WT [7] = biological target: T3, BRD3 BD2 WT; experiment: ITC; type: binding; conditions: for N BRD3 BD2 WT: ITC stoichiometry
[8] = biological target: WT somatic BET bromodomains; experiment: ITC; conditions: mean and SD of all somatic bromodomains
[9] = system: L/V BET bromodomains (BD1 and BD2 of BRD2, BRD3 and BRD4); experiment: competitive AlphaLISA (Bio-JQ1 displacement); type: binding, human; conditions: L/V minus WT
[10] = system: L/V somatic BET bromodomains; experiment: ITC; conditions: L/V minus WT
[11] = biological target: WT BET bromodomains (BD1 and BD2 of BRD2, BRD3 and BRD4); experiment: competitive AlphaLISA (Bio-JQ1 displacement); type: binding, human; conditions: mean and SD of all somatic bromodomains; active enantiomer concentration
BRD2 BD2 L/V [12] = biological target: T6, BRD2 BD2 L/V (Homo sapiens, UniProt P25440, L383V); experiment: ITC; type: binding
T6 sequence (P25440 344-455 L383V): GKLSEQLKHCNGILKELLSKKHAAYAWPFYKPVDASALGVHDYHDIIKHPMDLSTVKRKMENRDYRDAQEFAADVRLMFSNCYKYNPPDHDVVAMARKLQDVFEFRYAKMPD

BRD2 BD1 L/V [13] = biological target: T1, BRD2 BD1 L/V; experiment: competitive AlphaLISA; type: binding
BRD2 BD2 WT [14] = biological target: T7, BRD2 BD2 WT (Homo sapiens, UniProt P25440); experiment: ITC; type: binding; conditions: for N BRD2 BD2 WT: ITC stoichiometry
T7 sequence (P25440 344-455): as the sequence (P25440 344-455 L383V) above, with V40L counted along it

BRD3 BD1 L/V [15] = biological target: T2, BRD3 BD1 L/V; experiment: ITC; type: binding
in vitro [16] = conditions: BALB/c, mouse, plasma, pH 7.4
BRD3 BD1 WT [17] = biological target: T5, BRD3 BD1 WT; experiment: competitive AlphaLISA; type: binding
BRD3 BD2 L/V [18] = biological target: T4, BRD3 BD2 L/V; experiment: competitive AlphaLISA; type: binding
BRD2 BD2 WT [19] = biological target: T7, BRD2 BD2 WT; experiment: competitive AlphaLISA; type: binding
BRD2: LV/WT = BRD2: LV/WT (Homo sapiens, UniProt P25440, L110V); experiment: ITC, BRD2 tandem construct
BRD2: LV/WT, sequence (P25440 73-455 L110V limits assumed): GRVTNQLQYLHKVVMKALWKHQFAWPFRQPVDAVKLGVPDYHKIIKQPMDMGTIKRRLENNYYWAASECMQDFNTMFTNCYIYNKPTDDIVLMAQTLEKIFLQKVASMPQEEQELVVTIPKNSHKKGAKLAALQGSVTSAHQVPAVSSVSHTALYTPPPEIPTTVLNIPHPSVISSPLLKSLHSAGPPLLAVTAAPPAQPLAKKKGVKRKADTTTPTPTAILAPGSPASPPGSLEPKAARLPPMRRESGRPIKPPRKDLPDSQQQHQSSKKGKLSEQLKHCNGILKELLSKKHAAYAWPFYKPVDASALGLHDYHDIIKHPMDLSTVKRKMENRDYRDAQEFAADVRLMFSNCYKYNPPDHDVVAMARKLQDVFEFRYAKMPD
BRD2: WT/WT = BRD2: WT/WT (Homo sapiens, UniProt P25440); experiment: ITC, BRD2 tandem construct
BRD2: WT/WT, sequence (P25440 73-455): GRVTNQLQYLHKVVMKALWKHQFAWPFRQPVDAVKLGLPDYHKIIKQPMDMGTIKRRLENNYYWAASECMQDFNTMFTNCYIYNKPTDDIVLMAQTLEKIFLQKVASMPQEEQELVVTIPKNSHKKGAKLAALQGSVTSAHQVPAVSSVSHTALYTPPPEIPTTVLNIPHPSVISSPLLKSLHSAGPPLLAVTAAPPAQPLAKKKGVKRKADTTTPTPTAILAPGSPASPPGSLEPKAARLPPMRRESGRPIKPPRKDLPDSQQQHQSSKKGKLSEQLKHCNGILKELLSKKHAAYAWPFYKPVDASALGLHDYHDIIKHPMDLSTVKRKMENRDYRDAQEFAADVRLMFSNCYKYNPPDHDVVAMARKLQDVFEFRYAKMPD

BRD4 BD1 L/V [20] = biological target: T8, BRD4 BD1 L/V (Homo sapiens, UniProt O60885, L94V); experiment: competitive AlphaLISA; type: binding; conditions: AlphaLISA pIC50 Value BRD4 BD1 L/V
BRD4 BD2 WT = BRD4 BD2 WT (Homo sapiens, UniProt O60885); experiment: ITC; type: binding
BRD2: WT/LV = BRD2: WT/LV (Homo sapiens, UniProt P25440, L383V); experiment: ITC, BRD2 tandem construct
BRD2: WT/LV, sequence (P25440 73-455 L383V): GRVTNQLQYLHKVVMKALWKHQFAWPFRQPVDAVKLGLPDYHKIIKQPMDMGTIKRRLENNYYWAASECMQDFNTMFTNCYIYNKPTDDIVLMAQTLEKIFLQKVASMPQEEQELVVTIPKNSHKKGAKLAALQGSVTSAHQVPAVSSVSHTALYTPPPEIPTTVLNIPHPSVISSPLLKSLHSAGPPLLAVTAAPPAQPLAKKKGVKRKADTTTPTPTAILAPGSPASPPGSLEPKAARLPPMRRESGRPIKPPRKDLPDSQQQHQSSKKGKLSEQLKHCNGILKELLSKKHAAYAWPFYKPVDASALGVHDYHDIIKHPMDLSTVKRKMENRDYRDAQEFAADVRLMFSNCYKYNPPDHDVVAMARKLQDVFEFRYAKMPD

BRD4 BD1 L/V [21] = biological target: T8, BRD4 BD1 L/V; experiment: ITC; type: binding; conditions: ITC
BRDT BD1 L/V = BRDT BD1 L/V (Homo sapiens, UniProt Q58F21, L63V); experiment: competitive AlphaLISA; type: binding
BRD2: LV/LV = BRD2: LV/LV (Homo sapiens, UniProt P25440, L110V/L383V); experiment: ITC, BRD2 tandem construct
BRD2: LV/LV, sequence (P25440 73-455 L110V/L383V limits assumed): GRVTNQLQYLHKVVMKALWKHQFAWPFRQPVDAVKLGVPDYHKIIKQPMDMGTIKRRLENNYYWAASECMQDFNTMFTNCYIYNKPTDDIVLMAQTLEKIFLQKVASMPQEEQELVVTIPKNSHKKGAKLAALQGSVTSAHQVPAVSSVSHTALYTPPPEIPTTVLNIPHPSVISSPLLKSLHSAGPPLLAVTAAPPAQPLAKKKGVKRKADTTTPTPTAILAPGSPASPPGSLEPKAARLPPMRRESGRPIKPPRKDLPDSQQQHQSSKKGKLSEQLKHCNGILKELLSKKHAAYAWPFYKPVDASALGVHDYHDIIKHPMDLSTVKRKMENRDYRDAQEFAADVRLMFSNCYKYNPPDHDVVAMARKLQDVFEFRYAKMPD

BRD2 BD2 L/V [22] = biological target: T6, BRD2 BD2 L/V; experiment: competitive AlphaLISA; type: binding
Plasma Half-life = conditions: BALB/c, mouse, pH 7.4
BRDT BD1 WT = BRDT BD1 WT (Homo sapiens, UniProt Q58F21); experiment: competitive AlphaLISA; type: binding
BRD4 BD2 L/V [23] = biological target: T9, BRD4 BD2 L/V (Homo sapiens, UniProt O60885, L387V); experiment: competitive AlphaLISA; type: binding
BRD4 BD2 L/V [24] = biological target: T9, BRD4 BD2 L/V; experiment: ITC; type: binding
BRD4 BD1 WT [25] = biological target: T10, BRD4 BD1 WT (Homo sapiens, UniProt O60885); experiment: ITC; type: binding
Intrinsic Clearance = conditions: mouse liver microsomes
BRD4 BD1 WT [26] = biological target: T10, BRD4 BD1 WT; experiment: competitive AlphaLISA; type: binding; conditions: AlphaLISA pIC50 Value BRD4 BD1 WT

T1 sequence (P25440 71-176 L110V limits assumed): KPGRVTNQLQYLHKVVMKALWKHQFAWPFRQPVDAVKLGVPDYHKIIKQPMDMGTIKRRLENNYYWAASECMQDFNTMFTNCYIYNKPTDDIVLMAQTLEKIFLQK

In the case of CCNC(=O)[C@H](C)[C@@H]1N=C(c2ccc(Cl)cc2)c2cc(OC)ccc2-n2c(C)nnc21 (relative stereo) [Compound 16], the IC50 (BRDT BD2 WT; read-out: AlphaLISA pIC50 Value BRDT BD2 WT (converted)) is reported as 7940 nM, the Papp (in vitro [1]) is reported as 2.6 ×10⁻⁶ cm/s and the “ΔH BRD2 BD1 L/V” value (BRD2 BD1 L/V [2]; ITC) is reported as -16.3 kcal/mol. The Kd (BRD2 BD1 L/V [2]; ITC, 30°C, read-out: Kd BRD2 BD1 L/V) was 120 nM, the IC50 (BRD3 BD1 L/V [3]; read-out: AlphaLISA pIC50 Value BRD3 BD1 L/V (converted)) was 100 nM and the “ΔH BRD2 BD1 WT” value (BRD2 BD1 WT; ITC) was -4.5 kcal/mol. For the same compound, the “N BRD2 BD1 WT” value (BRD2 BD1 WT; ITC stoichiometry) was 0.94, the Kd (BRD2 BD1 WT; ITC, 30°C, read-out: Kd BRD2 BD1 WT) was 2200 nM and the IC50 (BRD3 BD2 WT [4]; read-out: AlphaLISA pIC50 Value BRD3 BD2 WT (converted)) was 3980 nM. The “ΔH BRD3 BD2 L/V” value (BRD3 BD2 L/V [5]; ITC) was -12.9 kcal/mol, the Kd (BRD3 BD2 L/V [5]; ITC, 30°C, read-out: Kd BRD3 BD2 L/V) was 130 nM and the “ΔH BRD3 BD1 WT” value (BRD3 BD1 WT [6]; ITC) was -8.8 kcal/mol. The “N BRD3 BD1 WT” value (BRD3 BD1 WT [6]) was 0.81, the Kd (BRD3 BD1 WT [6]; ITC, 30°C, read-out: Kd BRD3 BD1 WT) was 1600 nM and the IC50 (BRDT BD2 L/V) was 398 nM. The “ΔH BRD3 BD2 WT” value (BRD3 BD2 WT [7]; ITC) was -6.0 kcal/mol, the “N BRD3 BD2 WT” value (BRD3 BD2 WT [7]) was 0.88 and the Kd (BRD3 BD2 WT [7]; ITC, 30°C, read-out: Kd BRD3 BD2 WT) was 1500 nM. The “ITC pKd ± SD WT” value [8] was 5.6 ± 0.3, the “AlphaLISA pIC50 ± SD Δ” value [9] was 1.4 ± 0.2 and the “ITC pKd ± SD Δ” value [10] was 1.3 ± 0.3. The “AlphaLISA pIC50 ± SD WT” value [11] was 5.3 ± 0.2, the “ΔH BRD2 BD2 L/V” value (BRD2 BD2 L/V [12]; ITC) was -9.9 kcal/mol and the Kd (BRD2 BD2 L/V [12]; ITC, 30°C, read-out: Kd BRD2 BD2 L/V) was 190 nM. For the same compound, the IC50 (BRD2 BD1 L/V [13]; read-out: AlphaLISA pIC50 Value BRD2 BD1 L/V (converted)) was 398 nM, the “ΔH BRD2 BD2 WT” value (BRD2 BD2 WT [14]; ITC) was -3.9 kcal/mol and the “N BRD2 BD2 WT” value (BRD2 BD2 WT [14]) was 0.65. For the same compound, the Kd (BRD2 BD2 WT [14]; ITC, 30°C, read-out: Kd BRD2 BD2 WT) was 2400 nM, the “ΔH BRD3 BD1 L/V” value (BRD3 BD1 L/V [15]; ITC) was -19.0 kcal/mol and the Kd (BRD3 BD1 L/V [15]; ITC, 30°C, read-out: Kd BRD3 BD1 L/V) was 60 nM. The half-life at 50 µM (in vitro [16]) was greater than 3 h, the IC50 (BRD3 BD1 WT [17]; read-out: AlphaLISA pIC50 Value BRD3 BD1 WT (converted)) was 2000 nM and the IC50 (BRD3 BD2 L/V [18]; read-out: AlphaLISA pIC50 Value BRD3 BD2 L/V (converted)) was 79.4 nM. The IC50 (BRD2 BD2 WT [19]; read-out: AlphaLISA pIC50 Value BRD2 BD2 WT (converted)) was 5010 nM.

CC[C@@H](C(=O)OC)[C@@H]1N=C(c2ccc(Cl)cc2)c2cc(OC)ccc2-n2c(C)nnc21 (relative stereo) [Compound 4] gave an IC50 (BRDT BD2 WT) of 15800 nM, a Kd (BRD2: LV/WT) of 570 ± 50 nM and a Papp (in vitro [1]) of 15.3 ×10⁻⁶ cm/s. The Kd (BRD2 BD1 L/V [2]) was 240 nM, the “ΔH BRD2 BD1 L/V” value (BRD2 BD1 L/V [2]; ITC) was -12.6 kcal/mol and the IC50 (BRD3 BD1 L/V [3]) was 100 nM. For the same compound, the “ΔH BRD2 BD1 WT” value (BRD2 BD1 WT; ITC) was -5.3 kcal/mol, the Kd (BRD2: WT/WT) was 3800 ± 1100 nM and the IC50 (BRD3 BD2 WT [4]) was 10000 nM. For the same compound, the Kd (BRD3 BD2 L/V [5]) was 100 nM, the “ΔH BRD3 BD2 L/V” value (BRD3 BD2 L/V [5]; ITC) was -9.5 kcal/mol and the IC50 (BRD4 BD1 L/V [20]) was 251 nM. For the same compound, the Kd (BRD4 BD2 WT) was 35000 nM, the “ΔH BRD4 BD2 WT” value (BRD4 BD2 WT; ITC) was -3.4 kcal/mol and the Kd (BRD3 BD1 WT [6]) was 3300 nM. The “ΔH BRD3 BD1 WT” value (BRD3 BD1 WT [6]; ITC) was -4.9 kcal/mol, the “N BRD3 BD1 WT” value (BRD3 BD1 WT [6]) was 0.81 and the Kd (BRD2: WT/LV) was 620 ± 110 nM. The “ΔH BRD3 BD2 WT” value (BRD3 BD2 WT [7]; ITC) was -3.8 kcal/mol, the “N BRD3 BD2 WT” value (BRD3 BD2 WT [7]) was 0.85 and the “ITC pKd ± SD WT” value [8] was 5.1 ± 0.5. The “ΔH BRD4 BD1 L/V” value (BRD4 BD1 L/V [21]) was -10.3 kcal/mol, the Kd (BRD4 BD1 L/V [21]; Kd BRD4 BD1 L/V, 30°C) was 160 nM and the “AlphaLISA pIC50 ± SD Δ” value [9] was 1.7 ± 0.2. The “ITC pKd ± SD Δ” value [10] was 1.8 ± 0.4, the IC50 (BRDT BD1 L/V) was 501 nM and the Kd (BRD2: LV/LV) was 140 ± 10 nM. For the same compound, the IC50 (BRD2 BD2 L/V [22]) was 158 nM, the “AlphaLISA pIC50 ± SD WT” value [11] was 5.0 ± 0.1 and the half-life at 50 µM (Plasma Half-life) was greater than 3 h. The IC50 (BRDT BD1 WT) was 15800 nM, the Kd (BRD2 BD2 L/V [12]) was 50 nM and the “ΔH BRD2 BD2 L/V” value (BRD2 BD2 L/V [12]; ITC) was -8.5 kcal/mol. For the same compound, the IC50 (BRD2 BD1 L/V [13]) was 316 nM, the Kd (BRD2 BD2 WT [14]) was 3300 nM and the “ΔH BRD2 BD2 WT” value (BRD2 BD2 WT [14]; ITC) was -1.2 kcal/mol. The “N BRD2 BD2 WT” value (BRD2 BD2 WT [14]) was 0.91, the Kd (BRD3 BD1 L/V [15]) was 80 nM and the “ΔH BRD3 BD1 L/V” value (BRD3 BD1 L/V [15]; ITC) was -14.1 kcal/mol. For the same compound, the IC50 (BRD3 BD1 WT [17]) was 6310 nM, the IC50 (BRD4 BD2 L/V [23]) was 251 nM and the Kd (BRD4 BD2 L/V [24]) was 330 nM. For the same compound, the “ΔH BRD4 BD2 L/V” value (BRD4 BD2 L/V [24]; ITC) was -7.9 kcal/mol, the IC50 (BRD3 BD2 L/V [18]) was 100 nM and the Kd (BRD4 BD1 WT [25]) was 2500 nM. The “ΔH BRD4 BD1 WT” value (BRD4 BD1 WT [25]; ITC) was -2.6 kcal/mol, the “N BRD4 BD1 WT” value (BRD4 BD1 WT [25]; ITC stoichiometry) was 0.99 and the CL int (Intrinsic Clearance) was 1.5 ml min^–1 g^–1. For the same compound, the IC50 (BRD2 BD2 WT [19]) was 10000 nM and the IC50 (BRD4 BD1 WT [26]) was 7940 nM.
